Entries after “also recorded” stand apart in the source; their conditions may differ.
Tests used:
Format in all cases: in vivo
Lepr^db/db female mice [1] = experiment: LV end diastolic pressure measurement by pressure catheter in Lepr^db/db mice; conditions: 2 month old Lepr^db/db female mice
Experimental: Lepr^db mice (BKS.Cg-Dock7m/+ Lepr^db/+J) were obtained from Charles River laboratories and bred together to obtain Lepr^db/db and control Lepr^db/+ mice. To prevent mast cell degranulation, mice were treated with 50 mg/kg/day cromolyn sodium (Abcam) via intra-peritoneal injections for 28 days. Untreated mice received 0.9% NaCl daily intra-peritoneal injections. […] LV diastolic pressure measurement was assessed using pressure—volume conductance catheter technique. Briefly, mice will be anesthetized with Isoflurane. A Scisense pressure catheter (Transonic) will be inserted into the LV through the common carotid artery. Pressure will be recorded using […] LabChart software. End diastolic pressure, dP/dt minimum and maximum, Tau and heart rate were automatically calculated by a curve fit through end-systolic and end-diastolic points on the pressure plot.

Lepr^db/db female mice [2] = experiment: Echocardiography (ejection fraction, LV wall thickness) in Lepr^db/db mice; conditions: data not shown
From the text: Lepr^db mice (BKS.Cg-Dock7m/+ Lepr^db/+J) were obtained from Charles River laboratories and bred together to obtain Lepr^db/db and control Lepr^db/+ mice.
[…] Untreated mice received 0.9% NaCl daily intra-peritoneal injections.
Left-ventricular ejection fraction and LV dimension will be measured on a high-resolution echocardiographic system equipped with a 30-MHz mechanical transducer (VEVO 2100, VisualSonics Inc.) as previously described 13,14. Mice were anchored to a warming platform in a supine position, limbs were taped to the echocardiograph electrodes, and chests were shaved and cleaned with a chemical hair remover to minimize ultrasound attenuation. UNI′GEL ECG (Asept Inmed), from which all air bubbles had been expelled, was applied to the thorax to optimize the visibility of the cardiac chambers. Ejection fractions were evaluated by planimetry as recommended (Schiller et al. 1989). Two-dimensional, parasternal long-axis and short-axis views were acquired, and the endocardial area of each frame was calculated by tracing the endocardial limits in the long-axis view, then the minimal and maximal areas were used to determine the left-ventricular end-systolic (ESV) and end-diastolic (EDV) volumes, respectively. The system software uses a formula based on a cylindrical-hemiellipsoid model (volume=8·area^2/3π/length) 15. The left-ventricular ejection fraction was derived from the following formula: (EDV−ESV)/EDV*100. The cardiac wall thickness (Left ventricular posterior wall (LVPW), Inter-ventricular septum (IVS) and left ventricular internal diameter (LVID) were calculated by tracing wall limits in both the long and short axis views.

Lepr^db/db female mice [3] = experiment: Immuno-histological assessment of the heart (capillaries, albumin, CD45+ leucocytes, mast cells, cardiomyocyte size) in Lepr^db/db mice
Experimental: Lepr^db mice (BKS.Cg-Dock7m/+ Lepr^db/+J) were obtained from Charles River laboratories and bred together to obtain Lepr^db/db and control Lepr^db/+ mice. To prevent mast cell degranulation, mice were treated with 50 mg/kg/day cromolyn sodium (Abcam) via intra-peritoneal injections for 28 days. Untreated mice received 0.9% NaCl daily intra-peritoneal injections. […] Prior to staining, heart were stopped in diastole using KCl, perfused and then fixed in 10% formalin for 4 hours, paraffin embedded and cut into 7 μm thick sections. Alternatively, heart were fresh frozen in OCT, then cut into 7 μm thick sections. ECs were identified using rat anti-CD31 antibodies (Histonova, cat #DIA-310). Albumin was stained using sheep anti-albumin antibodies (Abcam, Cat #ab8940). Pan-leucocytes were identified using rat anti-mouse CD45 antibodies (BD Pharmingen Inc, Cat #550539). For immunofluorescence analyzes, primary antibodies were resolved with Alexa Fluor®-conjugated secondary polyclonal antibodies (Invitrogen, Cat #[NT]-10037) and nuclei were counterstained with DAPI (1/5000). Negative controls using secondary antibodies only were done to check for antibody specificity. Capillary density (CD31+ vessels) was quantified in 4 pictures taken under ×260 magnification in areas where cardiomyocytes were oriented transversally. To assess the mean capillary diameter, the diameter of 10 capillary randomly chosen in each picture was measured via Image J. Inflammatory cell density (CD45+) was quantified in 8 pictures randomly taken under ×260 magnification. All pictures and quantifications (done using ImageJ/Fiji v2.0.0-rc-59 software (National Institute of Health, USA)) were performed by a blinded investigator. More precisely, all samples were assigned a random number prior to animal sacrifice, data collection and analysis. At the end of the experiment, the genotype/treatment for each animal was unveiled to allow data comparison and experimental conclusion.

Lepr^db/db female mice [4] = experiment: Heart weight in Lepr^db/db mice; conditions: 50 mg/kg/day cromolyn sodium for 28 days; data not shown
Experimental: To prevent mast cell degranulation, mice were treated with 50 mg/kg/day cromolyn sodium (Abcam) via intra-peritoneal injections for 28 days. Untreated mice received 0.9% NaCl daily intra-peritoneal injections.

[5] = 50 mg/kg/day cromolyn sodium for 28 days

Row | Compound | End diastolic pressure (EDP) (Lepr^db/db female mice [1]; 4 mg/kg/day cetirizine orally (drinking water) for 28 days vs vehicle, FIG. 1B) | Ejection fraction (Lepr^db/db female mice [2]; 4 mg/kg/day cetirizine orally for 28 days) | Cardiac microvessel density (CD31+ vessels/mm^2) (Lepr^db/db female mice [3]; 50 mg/kg/day cromolyn sodium for 28 days vs vehicle, FIG. 2A) | Mean cardiac capillary diameter (Lepr^db/db female mice [3]; 50 mg/kg/day cromolyn sodium for 28 days vs vehicle, FIG. 2B) | Capillary permeability (albumin extravasation, albumin+ surface area) (Lepr^db/db female mice [3]; 50 mg/kg/day cromolyn sodium for 28 days vs vehicle, FIG. 2C) | CD45+ leucocyte recruitment (CD45+ cells/mm^2) (Lepr^db/db female mice [3]; 50 mg/kg/day cromolyn sodium for 28 days vs vehicle, FIG. 2D) | Percentage of degranulating mast cells in the heart (Lepr^db/db female mice [3]; 50 mg/kg/day cromolyn sodium for 28 days vs vehicle, data not shown) | Mean cardiomyocyte size (Lepr^db/db female mice [3]; 50 mg/kg/day cromolyn sodium for 28 days, data not shown) | End diastolic pressure (EDP) (Lepr^db/db female mice [1]; 50 mg/kg/day cromolyn sodium intra-peritoneal for 28 days vs vehicle, FIG. 1A) | End diastolic pressure (EDP) (Lepr^db/db female mice [1]; 50 mg/kg/day cromolyn sodium intra-peritoneal for 28 days vs vehicle, FIG. 1A, listed as Cromolyn Sodium) | End diastolic pressure (EDP) (Lepr^db/db female mice [1]; 50 mg/kg/day cromolyn sodium intra-peritoneal for 28 days vs vehicle, FIG. 1A, listed as Cromolyn sodium) | Heart weight (Lepr^db/db female mice [4]) | Ejection fraction (Lepr^db/db female mice [2]; [5]) | LV posterior wall thickness (Lepr^db/db female mice [2]; [5])
1 | O=C(O)COCCN1CCN(C(c2ccccc2)c2ccc(Cl)cc2)CC1 (centres unmarked) [cetirizine] | significantly decreased | not modulated | – | – | – | – | – | – | – | – | – | – | – | –
2 | O=C(O)c1cc(=O)c2c(OCC(O)COc3cccc4oc(C(=O)O)cc(=O)c34)cccc2o1 [cromolyn sodium] | – | – | did not modify | did reduce | decreased | decreases; also recorded: significantly decreased | did decrease | did neither modify | significantly decreased; also recorded: prevents increased EDP | prevents the occurrence of diastolic dysfunction | significantly reduced | did neither modify | not modulated | did neither modify

Source: patent publication US20220387408A1, “USE OF MAST CELL STABILIZER FOR THE TREATMENT OF HEART FAILURE WITH PRESERVED EJECTION FRACTION” (INSERM (INSTITUT NATIONAL DE LA SANTÉ ET DE LA RECHERCHE …, priority 2019, published 2022)
